Laboratory results from patent US20030104090A1, “Supplements containing annatto extracts and carotenoids and methods for using the same” (priority 2000, published 2003).
Read-outs that look alike come from different tables or passages of the source. Blank lines part the entries; values can stand above or below the molecule they belong to.

Tests used:
DNA = details: cells exposed to radiation, metal ions and peroxides, cisplatin; cited from earlier work
[1] = Serum levels of bixin and norbixin in human volunteers on bixin supplementation (Example 1); type: in vivo; details: human test group, 20 milligrams bixin daily as two 10 mg capsules, during supplementation
Description: (§1) Two groups of human volunteers (3 individuals in the test group and 5 in the control group) were exposed to high oxidative stress conditions by breathing contaminated air of a high ozone level and a high concentration of smoke over a period of four to five days for one half hour per day. Both groups were given the same diets. Namely, they consumed their normal daily diets but avoided foods rich in carotenoids, particularly foods containing annatto (as a colorant), from two weeks before the exposure until two weeks after the exposure.
During the period of bixin supplementation, the serum level of bixin and norbixin was zero in the control group, while the serum levels of bixin and norbixin in the individuals of the test group reached levels of 12 and 60 micrograms/liter, respectively.

[2] = mice and rats on high dietary doses; cited from earlier work
[3] = rats, cited from earlier work
[4] = mice, 66 mg norbixin per kilogram body weight; cited from earlier work
[5] = system: hippocampal neuronal cells; details: by suppressing activation of c-Src kinase; cited from earlier work
[6] = dietary, pregnant rats; cited from earlier work
[7] = 100 milligrams per day for 35 days; cited from earlier work
aldose reductase = aldose reductase (Homo sapiens, UniProt P15121); details: found in annatto leaf extract; cited from earlier work
PPARgamma and PPARalpha = details: 3T3-L1 adipocytes and HepG2 hepatocytes, in vitro; cited from earlier work
[8] = system: esterification of retinol; details: cited from earlier work
tumor cells = details: e.g. human leukemia U937; cited from earlier work
NIH3T3 cells = details: in combination with lovastatin, without the cytotoxicity of lovastatin alone; cited from earlier work
caspase-3 = details: HL-60 cells; cited from earlier work
[9] = system: thiobarbituric acid-reactive substances; assay: Oxidative stress load in the blood, modified TBAR test and free radical content (Example 1); type: in vivo, human; details: humans exposed to high ozone and smoke, 20 mg bixin daily
Description: as §1

C3H- 1 O-T 1-2 cells = details: same level as lutein and canthaxanthin, surpassed only by alpha-tocopherol; cited from earlier work
[10] = JECFA 1982, expressed as bixin; cited from earlier work
xenobiotic enzymes = details: rat, dietary supplementation; cited from earlier work
Connexin-43 = details: cited from earlier work
[11] = rats, oral administration, gamma-radiation; cited from earlier work
[12] = system: formation of cancer cells; details: carcinogenesis with methylcholantrene; cited from earlier work
lipoxidase = details: cited from earlier work; for antioxidant activity and lipoxidase inhibition: in vitro, isolated cell or enzyme systems
[13] = system: WAZ-2T(-SA) mammary tumor cell line; assay: Dietary bixin in mammary tumor development (Example 2); type: in vivo, BALB/c mice; details: for final tumor weight: 50 days after inoculation, control 1.1 grams; for tumor latency (days post inoculation when tumors first palpable): control 30 days
Method: (§2) Female BALB/c mice and the WAZ-2T(-SA) mammary tumor cell line were used to determine the efficacy of dietary bixin in inhibiting mammary tumor development. Six mice per treatment were fed a semi synthetic AlN-93M diet containing 0, 0.006 or 0.06% bixin. After 14 days, all mice were inoculated with 2500 tumor cells (a cell load which typically produces a 65% tumor incidence in untreated controls). Tumor growth was measured daily for 50 days, at which time blood, liver, spleen, and tumors were removed and evaluated. […] Final tumor weight was 0.3 grams at 0.06% dietary bixin, 0.7 grams at 0.006% and 1.1 grams for the control without dietary bixin. Tumor latency (number of days post inoculation when mammary tumors were first palpable) was 45 days at 0.06% dietary bixin level, 38 days at 0.006%, and 30 days for the control. Results were determined to be statistically significant at the P<0.05 level. […] It may thus be concluded that the dietary bixin protected the mice from mammary tumor development by triggering genes of immune related systems rather than by an antioxidant action at the cellular level.

[14] = after human ingestion; cited from earlier work
[15] = system: PIM-1, p-53, BAX, and BCL-2; assay: mRNA expression in isolated splenocytes cultured with concanavalin-A (Example 2); type: cell-based, BALB/c mice; details: splenocytes of mice fed dietary bixin
Method: as §2

[16] = Acceptable daily intake (JECFA, 1982); design: species or system human; details: worked out from 0.065 mg/day/kg
Description: Bixin and its hydrolyzed form, norbixin, are used as coloring agents for human consumption, mainly in cheese (see Collins, “The role of annatto in food colouring,” Food Ingredients and Processing International, 23-27 (February 1992)). For some coloring applications, methylbixin has been commercially prepared by esterification of the […] of the bixin molecule (Zechmelster, et al., “A stereochernical study of methylbixin,” J. Am. Chem. Soc., 66:322330 (1944); Jondiko, et al., “Terpenoids and an apocarotenoid from seeds of B. orellana,” Phytochemistry, 28:3159-3162 (1989)). As a natural color additive to foods, particularly cheeses, bixin is typically added at concentrations of about 1 to 25 mg bixin per kg of food, although higher quantities may be used for some cheeses. Estimates of average daily intake of bixin compounds (usually bixin and norbixin) are of the order of 0.3 to 3 mg per day per person, although some studies report higher values, through the consumption of products such as cheeses, cake decoration, breakfast cereals, ice cream, snacks, margarine, and other foods in which bixin extract is added during food manufacture to provide color. The maximum ADI (acceptable daily intake) established by the Joint FAO/WHO Committee on Food Additives (JECFA, 1982) is 0.065 mg/day/kg body weight, expressed as bixin. […]

[17] = cited from earlier work

serum level of norbixin [1]: 60 micrograms/liter
Molecule: CC(/C=C/C=C(C)/C=C/C(=O)O)=C\C=C\C=C(C)\C=C\C=C(C)\C=C\C(=O)O (stereo in doubt) [norbixin]
DNA protection in vitro (DNA): protects DNA | DNA breakage in liver and kidney [2]: no detectable DNA breakage | hyperglycemia induced ([3]; 8.5 mg dietary norbixin/kg body weight): 27% | hyperglycemia induced ([3]; 74 mg/kg): 53% | hypoglycemia induced [4]: up to 22%

Molecule: tocotrienol
protection from glutamate-induced death [5]: protects | bioavailability to maternal and fetal brains [6]: bioavailable | reduction of total cholesterol levels [7]: 20%

Molecule: isoscutellarein
aldose reductase inhibition (aldose reductase): aldose reductase inhibitor

Molecule: CC(C)=CCC/C(C)=C/CC/C(C)=C/CC/C(C)=C/CO [geranylgeraniol]
lipid metabolic target genes (PPARgamma and PPARalpha): upregulates | esterification of retinol into inactive retinyl esters [8]: inhibits esterification | induction of apoptosis (tumor cells): very potent inducer of apoptosis | aberrant (oncogenic) signaling between cells (NIH3T3 cells): selectively inhibits | activation of caspase-3 (caspase-3): selective activation

serum level of bixin [1]: 12 micrograms/liter | maximum ADI for average human weight of 60 kg [16]: 3.9 mg per day
Molecule: COC(=O)/C=C/C(C)=C\C=C\C(C)=C\C=C\C=C(C)\C=C\C=C(C)\C=C\C(=O)O [bixin]
oxidative stress level of the blood (modified TBAR test) ([9]; control group high): remained normal | free radical content of the blood ([9]; same relation as TBAR (control high, test normal)): same relation was found | DNA protection in vitro (DNA): protects DNA | inhibition of lipid peroxidation (C3H- 1 O-T 1-2 cells): potent inhibitor | maximum ADI (acceptable daily intake) [10]: 0.065 mg/day/kg body weight | effect on xenobiotic enzymes of lung and kidney (xenobiotic enzymes): induction effect | Connexin-43 gene expression (Connexin-43): does not up-regulate | level of lipid peroxides in serum and liver [11]: significantly reduced | prevention of formation of cancer cells [12]: did not prevent | lipoxydase inhibition, modulation of lipid hydroperoxide formation (lipoxidase; Canfield et al.): lipoxydase inhibitor | antioxidant activity and lipoxidase inhibition (lipoxidase): strong antioxidant activity and lipoxidase inhibition | final tumor weight ([13]; 0.006% dietary bixin): 0.7 grams | tumor latency (days post inoculation when tumors first palpable) ([13]; 0.006% dietary bixin): 38 days | final tumor weight ([13]; 0.06% dietary bixin): 0.3 grams | mammary tumor incidence and tumor growth rate ([13]; 0.06% dietary bixin, versus 0.006% and control): lowest | tumor latency (days post inoculation when tumors first palpable) ([13]; 0.06% dietary bixin): 45 days | absorption into the blood stream [14]: readily absorbed | mRNA expression levels of PIM-1, p-53, BAX, and BCL-2 [15]: dose dependent effects

Molecule: vitamin E
urinary albumin excretion rate ([17]; humans with type 2 diabetes): significantly reduced | plasma levels of C-reactive molecules ([17]; patients with diabetes): decreased

Molecule: COC(=O)/C=C/C(C)=C/C=C/C(C)=C/C=C/C=C(C)/C=C/C=C(C)/C=C/C(=O)OC [methylbixin]
antioxidant activity and lipoxidase inhibition (lipoxidase): strong antioxidant activity and lipoxidase inhibition
